Results reported in patent US11207291B2, “Antimicrobial compositions comprising cannabinoids and methods of using the same” (Graphium Biosciences, Inc., priority 2017, dated 2021).
In brackets after ≈: the same amount, converted by molar mass.

Assays:
[1] = tested on: Enterococcus faecalis (VSE); assay: Broth microdilution MIC, aerobic bacteria (Example 1); format: cell-based; details: Enterococcus faecalis, ATCC29212, isolate MMX 101 (ATCC 29212), read-out: MIC
[2] = tested on: Enterococcus faecalis (VRE); assay: microbe, parasite or virus in culture; format: cell-based; details: Enterococcus faecalis, VRE
Escherichia coli [3] = assay: Broth microdilution MIC, aerobic bacteria (Example 1); format: cell-based; details: Escherichia coli, ATCC25922, isolate MMX 102 (ATCC 25922), read-out: MIC
[4] = tested on: Klebsiella pneumoniae (KPC-2); format: cell-based; details: Example 1 summary of findings; Klebsiella
Acinetobacter baumannii = assay: Broth microdilution MIC, aerobic bacteria (Example 1); format: cell-based
Bifidobacterium bifidum = assay: Broth microdilution MIC, anaerobic bacteria (Example 1); format: cell-based; details: Bifidobacterium bifidum
Bifidobacterium longum = assay: as above; format: cell-based; details: Bifidobacterium longum
Bacteroides fragilis = assay: as above; format: cell-based; details: Bacteroides fragilis
Aspergillus fumigatus [5] = assay: Broth microdilution MIC, yeast and fungi (Example 1); format: cell-based; details: Aspergillus fumigatus, isolate MMX 5280 (ATCC MYA-3626)
[6] = Compound precipitation in uninoculated solubility controls (Example 1); format: physicochemical; set-up: key to precipitation observed (type): NA: not applicable (no precipitation observed); TRP: trace precipitate; DCP: distinct precipitate
Experimental: Plates were stacked 3-4 high, covered with a lid on the top plate, placed in plastic bags, and incubated at 35° C. for approximately 16 to 20 hr (aerobes), 20 to 24 hr (Streptococcus), and 24 and 48 hr (fungi). Anaerobe plates were stacked, covered with a lid on the top plate, placed in a BD GasPak EZ Anaerobe Container System and incubated at 35° C. for 48 hr. Following incubation, the microplates were removed from the incubator and viewed from the bottom using a plate viewer. […] The MIC was read and recorded as the lowest concentration of drug that inhibited visible growth of the organism.

[7] = tested on: Enterococcus faecalis (VSE); assay: Broth microdilution MIC, aerobic bacteria (Example 4); format: cell-based; details: ATCC29212
Streptococcus pyogenes = assay: as above; format: cell-based
Escherichia coli [8] = assay: as above; format: cell-based; details: ATCC25922
Aspergillus fumigatus [9] = assay: Broth microdilution MIC, fungi (Example 4); format: cell-based; details: Aspergillus fumigatus
S. aureus ATCC 29213 = assay: MIC/MBC testing (Example 5); format: cell-based
S. aureus MMX 757 = assay: MIC/MBC testing (Example 5); format: cell-based
E. faecalis ATCC 29212 = assay: MIC/MBC testing (Example 5); format: cell-based
E. faecalis MMX 848 = assay: MIC/MBC testing (Example 5); format: cell-based
S. pneumoniae ATCC 49619 = assay: MIC/MBC testing (Example 5); format: cell-based
C. difficile = assay: MIC/MBC testing (Example 5); format: cell-based; details: for MBC:MIC: ratios of 1-4 are indicative of bactericidal activity; for MBC / MIC: Clostridioides difficile
B. longum MMX 3968 = assay: MIC/MBC testing (Example 5); format: cell-based
B. fragilis ATCC 25285 = assay: MIC/MBC testing (Example 5); format: cell-based; details: Bacteroides fragilis, ATCC25285
Anaerobic Bacteria = assay: Broth microdilution MIC, text summary (Example 1); format: cell-based
[10] = tested on: evaluated yeast and fungal isolates; assay: Broth microdilution MIC, text summary (Example 1); format: cell-based
[11] = Example 1 summary of findings, read-out: inhibits the growth (IC50 values)
[12] = Staphylococcus aureus, ATCC29213
[13] = ratios of 1-4 are indicative of bactericidal activity
[14] = Enterococcus faecalis, ATCC29212
[15] = Streptococcus pneumoniae, ATCC49619
[16] = ATCC700057, Example 5, ATCC 700057
[17] = Bifidobacterium longum, MMX3968

**Q.** Which MIC [1] does the source give for `C=C(C)[C@@H]1CCC(C)=C[C@H]1c1c(O)cc(CCCCC)cc1O` [CBD, cannabidiol] here?
**A.** Its MIC is 2 µg/mL (≈ 6.36 µM).

**Q.** What about the MIC [2] of the same compound?
**A.** The MIC was 2 µg/mL (≈ 6.36 µM).

**Q.** What about the IC50 ([2]; read-out: inhibits the growth (IC50)) of the same compound?
**A.** Its IC50 is 2 µg/mL (≈ 6.36 µM).

**Q.** And the MIC (Escherichia coli [3])?
**A.** The MIC was greater than 256 µg/mL.

**Q.** And the “effect on the gram-negative pathogen” value [4]?
**A.** Its value is “did not have any effect”.

**Q.** What about the MIC (Acinetobacter baumannii; Acinetobacter baumannii) of the same compound?
**A.** Its MIC is greater than 256 µg/mL.

**Q.** What about the “effect on the gram-negative pathogen” value (Acinetobacter baumannii; Example 1 summary of findings, Acinetobacter) of the same compound?
**A.** Its value is “did not have any effect”.

**Q.** What about the MIC (Bifidobacterium bifidum; Example 1, isolate MMX 3965, read-out: MIC) of the same compound?
**A.** The MIC was 2 µg/mL (≈ 6.36 µM).

**Q.** What about the IC50 (Bifidobacterium bifidum; [11]) of the same compound?
**A.** The IC50 was 2 µg/mL (≈ 6.36 µM).

**Q.** What about the MIC (Bifidobacterium longum; Example 1, isolate MMX 3968, read-out: MIC) of the same compound?
**A.** The MIC was 32 µg/mL (≈ 102 µM).

**Q.** What about the IC50 (Bifidobacterium longum; [11]) of the same compound?
**A.** Its IC50 is 32 µg/mL (≈ 102 µM).

**Q.** What about the MIC (Bacteroides fragilis; ATCC5285) of the same compound?
**A.** The MIC was 32 µg/mL (≈ 102 µM).

**Q.** What about the IC50 (Bacteroides fragilis; Example 1 summary of findings, read-out: inhibits the growth (IC50)) of the same compound?
**A.** The IC50 was 32 µg/mL (≈ 102 µM).

**Q.** What about the MIC (Aspergillus fumigatus [5]; 24 hr, read-out: MIC at 24 hr) of the same compound?
**A.** The MIC was greater than 256 µg/mL.

**Q.** What about the MIC (Aspergillus fumigatus [5]; 48 hr, read-out: MIC at 48 hr) of the same compound?
**A.** Its MIC is greater than 256 µg/mL.

**Q.** What about the “lowest concentration at which precipitation was observed” value ([6]; MHB II) of the same compound?
**A.** The value was 16 µg/mL.

**Q.** What about the “precipitation observed (type)” value ([6]; MHB II) of the same compound?
**A.** The value was “TRP”.

**Q.** What about the “lowest concentration at which precipitation was observed” value ([6]; MHB II with Blood) of the same compound?
**A.** Its value is 128 µg/mL.

**Q.** What about the “precipitation observed (type)” value ([6]; MHB II with Blood) of the same compound?
**A.** The value was “TRP”.

**Q.** And the MIC [7]?
**A.** Its MIC is 2 µg/mL (≈ 6.36 µM).

**Q.** What about the MIC (Streptococcus pyogenes) of the same compound?
**A.** The MIC was 32 µg/mL (≈ 102 µM).

**Q.** And the MIC (Escherichia coli [8])?
**A.** Its MIC is greater than 128 µg/mL.

**Q.** And the MIC (Aspergillus fumigatus [9]; 48 h, read-out: MIC at 48 hr)?
**A.** The MIC was greater than 128 µg/mL.

**Q.** What about the MIC (Aspergillus fumigatus [9]; Example 4, 24 hr, isolate MMX 5280 (MYA-3626), read-out: MIC at 24 hr) of the same compound?
**A.** The MIC was greater than 128 µg/mL.

**Q.** And the MBC (S. aureus ATCC 29213; [12])?
**A.** The MBC was 2 µg/mL (≈ 6.36 µM).

**Q.** And the MIC (S. aureus ATCC 29213; [12])?
**A.** Its MIC is 1 µg/mL (≈ 3.18 µM).

**Q.** And the “MBC:MIC” value (S. aureus ATCC 29213; [13])?
**A.** Its value is 2.

**Q.** And the MBC (S. aureus MMX 757; Staphylococcus aureus, MMX757)?
**A.** Its MBC is 1 µg/mL (≈ 3.18 µM).

**Q.** What about the MIC (S. aureus MMX 757; Staphylococcus aureus, MMX757) of the same compound?
**A.** Its MIC is 1 µg/mL (≈ 3.18 µM).

**Q.** And the “MBC:MIC” value (S. aureus MMX 757; [13])?
**A.** The value was 1.

**Q.** What about the MBC (E. faecalis ATCC 29212; [14]) of the same compound?
**A.** The MBC was 2 µg/mL (≈ 6.36 µM).

**Q.** And the MIC (E. faecalis ATCC 29212; [14])?
**A.** The MIC was 2 µg/mL (≈ 6.36 µM).

**Q.** What about the “MBC:MIC” value (E. faecalis ATCC 29212; [13]) of the same compound?
**A.** Its value is 1.

**Q.** What about the MBC (E. faecalis MMX 848; Enterococcus faecalis, MMX848) of the same compound?
**A.** Its MBC is 2 µg/mL (≈ 6.36 µM).

**Q.** And the MIC (E. faecalis MMX 848; Enterococcus faecalis, MMX848)?
**A.** The MIC was 1 µg/mL (≈ 3.18 µM).

**Q.** What about the “MBC:MIC” value (E. faecalis MMX 848; [13]) of the same compound?
**A.** Its value is 2.

**Q.** And the MBC (S. pneumoniae ATCC 49619; [15])?
**A.** The MBC was 4 µg/mL (≈ 12.7 µM).

**Q.** What about the MIC (S. pneumoniae ATCC 49619; [15]) of the same compound?
**A.** Its MIC is 1 µg/mL (≈ 3.18 µM).

**Q.** What about the “MBC:MIC” value (S. pneumoniae ATCC 49619; [13]) of the same compound?
**A.** Its value is 4.

**Q.** And the “MBC:MIC” value (C. difficile; ATCC 700057)?
**A.** The value was 2.

**Q.** What about the MBC (C. difficile; [16]) of the same compound?
**A.** Its MBC is 32 µg/mL (≈ 102 µM).

**Q.** What about the MIC (C. difficile; [16]) of the same compound?
**A.** The MIC was 16 µg/mL (≈ 50.9 µM).

**Q.** What about the MBC (C. difficile; Example 5, MMX 8330) of the same compound?
**A.** The MBC was 32 µg/mL (≈ 102 µM).

**Q.** What about the MIC (C. difficile; Example 5, MMX 8330) of the same compound?
**A.** The MIC was 32 µg/mL (≈ 102 µM).

**Q.** And the MBC (C. difficile; Example 5, MMX 8333)?
**A.** The MBC was 32 µg/mL (≈ 102 µM).

**Q.** What about the MIC (C. difficile; Example 5, MMX 8333) of the same compound?
**A.** The MIC was 16 µg/mL (≈ 50.9 µM).

**Q.** What about the “MBC:MIC” value (C. difficile; MMX 8330) of the same compound?
**A.** The value was 1.

**Q.** And the “MBC:MIC” value (C. difficile; MMX 8333)?
**A.** The value was 2.

**Q.** What about the MBC (B. longum MMX 3968; [17]) of the same compound?
**A.** Its MBC is 64 µg/mL (≈ 204 µM).

**Q.** What about the MIC (B. longum MMX 3968; [17]) of the same compound?
**A.** The MIC was 16 µg/mL (≈ 50.9 µM).

**Q.** What about the “MBC:MIC” value (B. longum MMX 3968; [13]) of the same compound?
**A.** The value was 4.

**Q.** What about the MIC (B. fragilis ATCC 25285) of the same compound?
**A.** The MIC was 16 µg/mL (≈ 50.9 µM).

**Q.** And the “MICs (range over anaerobic bacteria)” value (Anaerobic Bacteria)?
**A.** The value was 2 to 64 µg/mL.

**Q.** And the “activity against yeast and fungal isolates” value [10]?
**A.** Its value is “Neither the cannabinoid prodrugs or CBD were active”.
